Records with an inconclusive call do not appear.
System: M. tuberculosis H37Rv growth inhibition, 7H9 media
Assay: M. tuberculosis growth inhibition, HTS (AID 449762);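 note: bacterial growth assessed after seven days of incubation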
Conditions: for IC90: measured here: IC90 growth inhibition

Row | Compound | IC50 | IC90
1 | O=[N+]([O-])c1ccc(C2CC(c3ccccc3)=Nc3ccccc3S2)cc1 (stereo unspecified) | 5.11 µM | 6.66 µM
2 | c1cc(Nc2cccc3nccnc23)c2nccnc2c1 | 9.75 µM | 23.2 µM
3 | CCC(=O)Nc1nc2ccccc2n1Cc1ccc(Cl)cc1 | < 0.2 µM | 4.92 µM
4 | CCC(C)c1ccc2oc(-c3ccc(NC(=O)c4ncn[nH]4)cc3)nc2c1 (stereo unspecified) | 1.59 µM | 7.52 µM
5 | Cc1ccc(S(=O)(=O)/N=C(\CCl)N2CCOCC2)cc1 | 6.44 µM | 14.9 µM
6 | O=C(CSc1ccc(Cl)cc1)N1CCC(c2nc3ccccc3s2)CC1 | 85.9 µM | 92.9 µM
7 | Cc1ccc(C2(c3ccc(C)cc3)CC2C(=O)Nc2ccc([N+](=O)[O-])cc2O)cc1 (stereo unspecified) | 19.7 µM | 27.1 µM
8 | NC(=O)c1cccc(-c2cc(Nc3ccc(OC(F)(F)F)cc3)ncn2)c1 | 8.46 µM | 18.4 µM
9 | O=C(/C=C/c1cc(Br)ccc1O)c1ccco1 | 7.96 µM | 13.4 µM
10 | O=C(Nc1cccc(-c2nc3ccccc3s2)c1)c1cc(-n2cnnc2)ccc1Cl | 11.6 µM | 13.1 µM
11 | CN1CCN(CC/C=C2/c3ccccc3Sc3ccc(S(=O)(=O)N(C)C)cc32)CC1 | – | > 100 µM
12 | N#Cc1nc(-c2ccc(OCc3ccccc3)cc2)oc1NCCCn1ccnc1 | 26.7 µM | 35.5 µM
13 | CN1C(=O)/C(=C/c2ccccc2Cl)Sc2ccc(C(=O)NCc3cccnc3)cc21 | 23.2 µM | 68.9 µM
14 | O=C(Nc1ccc2nsnc2c1)NC1CCCCC1 | 26 µM | > 50 µM
15 | C=C[C@]1(C)C[C@@H](OC(=O)CSCCN(CC)CC)[C@]2(C)C(C)CC[C@]3(CCC(=O)[C@H]32)[C@@H](C)[C@@H]1O (stereo partly specified) | 4.03 µM | 7.7 µM
16 | Cn1cnnc1SCc1ccc(-c2ccc(Br)cc2)o1 | 85.1 µM | > 100 µM
17 | CC(C)(C)NC(=O)C(c1c[nH]c2ccccc12)N(C(=O)Cn1nnc(-c2ccc(F)cc2)n1)c1cccc(O)c1 (stereo unspecified) | 64 µM | > 100 µM
18 | CSC(=S)NCc1cccnc1 | 11.5 µM | 34.7 µM
19 | CCOc1ncccc1C(=O)OCC(=O)N1CCc2ccccc21 | 6.15 µM | 15.4 µM
20 | CCOC(=O)Cn1c(C)c(Br)c(=O)c2cccc(C)c21 | 7.53 µM | 22.7 µM
21 | Cc1cc(CC(C)C)n(-c2nc3ccccc3c(=O)n2OCC(N)=O)n1 | 3.88 µM | 12.7 µM
22 | CCCC(/C=C/c1ccc(OC(C)=O)cc1)=C1/c2ccccc2C(=O)N1c1ccccc1 | 8.07 µM | 16.1 µM

Row | Compound | IC50 | IC90
23 | CC1CN(C(=S)SCC(=O)c2ccc([N+](=O)[O-])cc2)CC(C)O1 (stereo unspecified) | 27 µM | > 100 µM
24 | COc1ccccc1C1CC(c2c(-c3ccccc3)c3cc(Cl)ccc3[nH]c2=O)=NN1S(C)(=O)=O (stereo unspecified) | 93.7 µM | > 100 µM
25 | CC(/C=C/C=C/c1ccccc1)=N\NC(=O)c1cccnc1 | 91.8 µM | > 100 µM
26 | O=[N+]([O-])c1cc(Cl)c(O)c(-[n+]2c(-c3ccccc3)cc(-c3ccccc3)cc2-c2ccccc2)c1 | 2.32 µM | 5.36 µM
27 | O=C(CCC(=O)OCc1ccc(C(=O)Oc2ccc(Cl)cc2)cc1)Nc1ccccc1 | 16.4 µM | 44 µM
28 | C/C(=N\NC(=O)c1cc2ccccc2cc1O)c1ccc(C)o1 | 10.1 µM | 36.3 µM
29 | Cc1cccc(CNc2ncnc3ccc(-c4ccc5c(c4)OCCO5)cc23)c1 | 5.93 µM | 6.77 µM
30 | N#CCn1c(CCl)nc2ccccc2c1=O | 5.21 µM | 17.4 µM
31 | Cc1cc2c(N=O)c(NO)ccc2[nH]1 | 10.3 µM | 15 µM
32 | COc1ccc(OC)c(Nc2nc(-c3sc(C)nc3C)cs2)c1 | 51.7 µM | > 100 µM
33 | Oc1ccccc1NCC(O)Cn1ccc2ccccc21 (stereo unspecified) | 5.37 µM | 8.32 µM
34 | O=C(Nc1nc(-c2cc(Cl)sc2Cl)cs1)c1cccs1 | 29.3 µM | > 100 µM
35 | Cc1ccc(C(=O)OCc2nnc(-c3ccccc3)o2)s1 | 19 µM | 33.5 µM
36 | COc1cc(C(=O)/C=C/c2cccnc2)c([N+](=O)[O-])cc1OC | 5.52 µM | 8.56 µM
37 | O=C(NCCC1=CCCCC1)c1c(O)nc2sccn2c1=O | 72.8 µM | > 100 µM
38 | CCC1(c2ccccc2)ON(c2c(Br)cccc2Br)C1=O (stereo unspecified) | 16.9 µM | 50.4 µM
39 | COCc1nnc(NC(=O)C2CC(=O)N(c3ccc(C)c(Cl)c3)C2)s1 (stereo unspecified) | 51.1 µM | > 100 µM
40 | Oc1ccccc1N=Cc1ccc[nH]1 | 3.83 µM | 7.96 µM
41 | N#C/C(=C\c1ccc(-c2ccc(Br)cc2)o1)C(=O)NCCc1c[nH]c2ccccc12 | 96.1 µM | > 100 µM
42 | C#C[C@]1(O)CC[C@H]2[C@@H]3CCc4cc(OC5CCCC5)ccc4[C@H]3CC[C@@]21C | 35.5 µM | 48 µM
43 | Cc1nnc(SCc2ccccc2Cl)n(N)c1=O | 0.38 µM | 5.3 µM
44 | O=[N+]([O-])c1c(C(Cl)Cl)nn(-c2ccc(Cl)cc2)c1N1CCCCC1 | 15.6 µM | 19.4 µM

Row | Compound | IC50 | IC90
45 | Ic1ccccc1CN[C@@H]1C2CCN(CC2)[C@@H]1C(c1ccccc1)c1ccccc1 | 29.5 µM | 38.4 µM
46 | CCOC(=O)CSc1nsc(SCC(=O)OCC)c1C#N | 11.9 µM | 13.6 µM
47 | CC1CCN(C(=S)NC(=O)c2cccs2)CC1 | 12.8 µM | 29 µM
48 | CCOC(=O)c1ccc(N=Cc2c(O)c3ccccc3oc2=O)cc1 | 66 µM | > 100 µM
49 | CCc1ccc(NC(=O)c2ccc(C3SCC(=O)N3CCc3ccccc3)cc2)cc1 (stereo unspecified) | 97.5 µM | > 100 µM
50 | COc1ccc(/C=C2\CCC/C(=C\C=N\N(C)C)C2=O)cc1 | 8.19 µM | 16.2 µM
51 | Nc1ccc(N=Nc2ccccc2)c(N)n1 | – | > 100 µM
52 | Cc1ccc(-n2cc(CN(C)Cc3nccn3C)c(-c3cccc(C)c3)n2)cc1 | 9.52 µM | 13.3 µM
53 | O=C(CSc1nn(-c2ccc(F)cc2)c(=S)s1)NCC1CCCO1 (stereo unspecified) | 6.13 µM | > 100 µM
54 | c1ccc(C2[C@H]3CN(CC4CCCCC4)[C@H](c4ccccc4)C34CC2(c2cccnc2)C4)cc1 (stereo partly specified) | 31.4 µM | 41.5 µM
55 | CC1CCC(NC(=O)c2cc3c(s2)CCCC3)CC1 (stereo unspecified) | 40.1 µM | 57.1 µM
56 | COc1ccc(C[C@H](N)C(=O)N[C@H]2[C@@H](O)[C@H](n3cnc4c(N(C)C)ncnc43)O[C@@H]2CO)cc1 | 3.14 µM | 3.54 µM
57 | O=c1oc2ccccc2c2c1nc(C(F)(F)F)n2-c1ccccc1 | 4.39 µM | 31.1 µM
58 | Oc1[nH]c2ccccc2c1N=NC(=S)N1CCOCC1 | 12.3 µM | 13.9 µM
59 | O=C(CCN1C(=O)/C(=C/c2ccccc2)SC1=S)Nc1ccccn1 | 89.9 µM | > 100 µM
60 | O=[N+]([O-])c1cc([N+](=O)[O-])c2c(=Nc3ccccc3)n(-c3ccccc3)n(O)c2c1 | 6.35 µM | 9.25 µM
61 | CC(C)=CCOc1ccc([C@@H]2COc3c(ccc4c3C=CC(C)(C)O4)C2)c(O)c1 | 4.75 µM | 7.77 µM
62 | Cc1ccc2cc(C)c(N3CCN(c4ccccn4)CC3)nc2c1 | 29.7 µM | 46.3 µM
63 | CCOC(=O)C1CCN(C(=O)CSCc2nc(-c3ccc(OCC)cc3)oc2C)CC1 | 42.9 µM | 48.1 µM
64 | Oc1ccccc1/C=N/Nc1ccnc(SCc2ccccc2)n1 | 1.43 µM | 1.55 µM

— PubChem BioAssay AID449762 (Southern Research Specialized Biocontainment Screening …, 2010)
